Our source for the Activity, inhibition and IC50 values is ChEMBL document CHEMBL5052828, “Therapeutic agents for treating and preventing autoimmune diseases and cancer and a screening method” (2020).

The source made the active and inactive calls. The calls are words filed in the database; no cut-off is given here.

Assay [1] has as its system Mus musculus. Nature of the assay: Antiinflammatory activity in C57BL/6 mouse model of collagen-induced arthritis assessed as reduction in clinical score at 0.25 mg, ip. It is filed as functional, organism-based.
For assay [2], the system named is HEK293T. Nature of the assay: Inhibition of Arid5a in human HEK293T cells at 40 uM assessed as inhibition of stabilization of IL-6 on 3'UTR measured by luciferase assay. The assay is classed as cell-based.
The test system of assay [3] is LNCaP. Nature of the assay: Antiproliferative activity against human LNCaP cells at 25 uM assessed as suppression of cell viability after 4 hrs by CCK-8 assay. It is filed as functional. Background: Tetrazolium dyes change colour on reduction, which living cells bring about.
Assay [4] has as its system Mus musculus. Description: Protection against imiquimod-induced psoriasis model of BALB/c mouse assessed as reduction in clinical score at 1 mg treated topically. It is filed as functional, organism-based.
For assay [5], the system named is MDA-MB-231. Nature of the assay: Antiproliferative activity against human MDA-MB-231 cells at 20 uM assessed as suppression of cell viability after 4 hrs by CCK-8 assay. The assay is classed as functional.
Assay [6] relates to A549. Nature of the assay: Antiproliferative activity against human A549 cells at 20 uM assessed as suppression of cell viability after 4 hrs by CCK-8 assay. It is filed as functional.
Assay [7] relates to MDA-MB-231. Nature of the assay: Antiproliferative activity against human MDA-MB-231 cells after 4 hrs by CCK-8 assay. The conditions noted are these: MDA-MB-231, 4 h. It is filed as functional, cell-based.
Assay [8] has as its system Mus musculus. Description: Protection against imiquimod-induced psoriasis model of BALB/c mouse assessed as reduction in IL-17a mRNA expression at 1 mg treated topically. It is filed as functional, organism-based.
Assay [9] relates to Mus musculus. Nature of the assay: Protection against imiquimod-induced psoriasis model of BALB/c mouse assessed as reduction in IL-6 mRNA expression at 1 mg treated topically. It is filed as functional, organism-based.
The test system of assay [10] is Mus musculus. Nature of the assay: Antiinflammatory activity in C57BL/6 mouse model of collagen-induced arthritis assessed as reduction in frequency of CD4+ IL-17+ cells at 0.25 mg, ip. It is filed as functional, organism-based.
Assay [11] has as its system A549. Description: Antiproliferative activity against human A549 cells after 4 hrs by CCK-8 assay. It is filed as functional, cell-based. The settings on record: A549, 4 h.
In assay [12] the test system is Mus musculus. Description: Antiinflammatory activity in C57BL/6 mouse model of collagen-induced arthritis assessed as reduction in serum IL-6 level at 0.25 mg, ip. The assay is classed as functional, organism-based.
Assay [13] concerns LNCaP. Nature of the assay: Antiproliferative activity against human LNCaP cells after 4 hrs by CCK-8 assay. The assay is classed as functional, cell-based.
Assay [14] relates to Macrophage. Description: Antiinflammatory activity in LPS-stimulated mouse peritoneal macrophages at 40 uM assessed as decrease in frequency of CD4 + OX40 + T cells in polarized Th17 cells measured by flow cytometry analysis. It is filed as functional, cell-based. In general terms: In flow cytometry, cells or beads pass a laser one at a time.
In assay [15] the test system is HEK293T. Description: Inhibition of Arid5a F56 pocket X mutant in human HEK293T cells at 40 uM assessed as inhibition of stabilization of STAT3 on 3'UTR measured by luciferase assay. It is filed as cell-based.
In assay [16] the test system is Mus musculus. Nature of the assay: Immunosuppressive activity in MOG (35 to 55 residues)/pertussis toxin-induced experimental autoimmune encephalomyelitis female C57BL/6 mouse model assessed as reduction in clinical scores at 0.5 mg, ip. The assay is classed as functional, organism-based.
Assay [17] deals with Macrophage. Description: Antiinflammatory activity in LPS-stimulated mouse peritoneal macrophages at 40 uM assessed as decrease STAT3 mRNA expression in Th17 cells. The assay is classed as functional, cell-based.
Assay [18] deals with Mus musculus. Description: Immunosuppressive activity in MOG (35 to 55 residues)/pertussis toxin-induced experimental autoimmune encephalomyelitis female C57BL/6 mouse model assessed as reduction in serum IL-6 level at 0.5 mg, ip. The assay is classed as functional, organism-based.
For assay [19], the system named is Mus musculus. Nature of the assay: Immunosuppressive activity in MOG (35 to 55 residues)/pertussis toxin-induced experimental autoimmune encephalomyelitis female C57BL/6 mouse model assessed as reduction in OX40 mRNA expression in CD4 + T cells at 0.5 mg, ip. It is filed as functional, organism-based. The settings on record: T-cell.
Assay [20] concerns Macrophage. Nature of the assay: Antiinflammatory activity in LPS-stimulated mouse peritoneal macrophages at 40 uM assessed as decrease in IL-17 level measured by ELISA. The assay is classed as functional, cell-based. (An ELISA detects its analyte on a solid surface through an enzyme-linked reagent.)
Assay [21] relates to HEK293T. Description: Inhibition of Arid5a Y137 pocket X mutant in human HEK293T cells at 40 uM assessed as inhibition of stabilization of OX40 on 3'UTR measured by luciferase assay. It is filed as cell-based.
Assay [22] has as its system HEK293T. Nature of the assay: Inhibition of Arid5a F56 pocket X mutant in human HEK293T cells at 40 uM assessed as inhibition of stabilization of OX40 on 3'UTR measured by luciferase assay. The assay is classed as cell-based.
The subject of assay [23] is HEK293T. Description: Inhibition of Arid5a V34 pocket X mutant in human HEK293T cells at 40 uM assessed as inhibition of stabilization of STAT3 on 3'UTR measured by luciferase assay. It is filed as cell-based.
Assay [24] relates to HEK293T. Nature of the assay: Inhibition of Arid5a in human HEK293T cells at 10 to 60 uM assessed as inhibition of stabilization of OX40 on 3'UTR measured by luciferase assay. The assay is classed as cell-based. The conditions noted are these: dose 10-60 µM.
Assay [25] deals with HEK293T. Nature of the assay: Inhibition of Arid5a in human HEK293T cells at 10 to 60 uM assessed as inhibition of stabilization of IL-6 on 3'UTR measured by luciferase assay. The settings on record: dose 10-60 µM. The assay is classed as cell-based.
In assay [26] the test system is Mus musculus. Description: Immunosuppressive activity in MOG (35 to 55 residues)/pertussis toxin-induced experimental autoimmune encephalomyelitis female C57BL/6 mouse model assessed as reduction in IL-17 level in encephalitogenic CD4 + T cells at 0.5 mg, ip. The settings on record: T-cell. It is filed as functional, organism-based.
Assay [27] relates to Macrophage. Description: Antiinflammatory activity in LPS-stimulated mouse peritoneal macrophages at 40 uM assessed as decrease in IL-6 level measured by ELISA. It is filed as functional, cell-based.
For another assay, the species on record is Homo sapiens. Nature of the assay: Inhibition of human Arid5a binding to (ADE) -like stem loop in the OX40 3'UTR measured by RNA-protein binding assay. The settings on record: dose 0.5 mg.
Assay [28] relates to HEK293T. Description: Inhibition of Arid5a L84 pocket X mutant in human HEK293T cells at 40 uM assessed as inhibition of stabilization of STAT3 on 3'UTR measured by luciferase assay. It is filed as cell-based.
The subject of assay [29] is Mus musculus. Description: Immunosuppressive activity in MOG (35 to 55 residues)/pertussis toxin-induced experimental autoimmune encephalomyelitis female C57BL/6 mouse model assessed as reduction in serum TNF-alpha level at 0.5 mg, ip. The assay is classed as functional, organism-based.
In assay [30] the test system is HEK293T. Description: Inhibition of Arid5a Y137 pocket X mutant in human HEK293T cells at 40 uM assessed as inhibition of stabilization of IL-6 on 3'UTR measured by luciferase assay. The assay is classed as cell-based.
The test system of assay [31] is Macrophage. Nature of the assay: Antiinflammatory activity in LPS-stimulated mouse peritoneal macrophages at 40 uM assessed as effect on TNF-alpha level measured by ELISA. The assay is classed as functional, cell-based.
Assay [32] concerns HEK293T. Description: Inhibition of Arid5a F56 pocket X mutant in human HEK293T cells at 40 uM assessed as inhibition of stabilization of IL-6 on 3'UTR measured by luciferase assay. It is filed as cell-based.
For assay [33], the system named is HEK293T. Nature of the assay: Inhibition of Arid5a V34 pocket X mutant in human HEK293T cells at 40 uM assessed as inhibition of stabilization of OX40 on 3'UTR measured by luciferase assay. The assay is classed as cell-based.
In assay [34] the test system is HEK293T. Description: Inhibition of Arid5a Y137 pocket X mutant in human HEK293T cells at 40 uM assessed as inhibition of stabilization of STAT3 on 3'UTR measured by luciferase assay. It is filed as cell-based.
Assay [35] concerns HEK293T. Description: Inhibition of Arid5a V34 pocket X mutant in human HEK293T cells at 40 uM assessed as inhibition of stabilization of IL-6 on 3'UTR measured by luciferase assay. The assay is classed as cell-based.
In assay [36] the test system is Mus musculus. Nature of the assay: Immunosuppressive activity in MOG (35 to 55 residues)/pertussis toxin-induced experimental autoimmune encephalomyelitis female C57BL/6 mouse model assessed as reduction in frequency of CD4 + OX40 + T cells at 0.5 mg, ip. It is filed as functional, organism-based. The settings on record: T-cell.
The subject of assay [37] is HEK293T. Nature of the assay: Inhibition of Arid5a L84 pocket X mutant in human HEK293T cells at 40 uM assessed as inhibition of stabilization of IL-6 on 3'UTR measured by luciferase assay. It is filed as cell-based.
Assay [38] concerns HEK293T. Nature of the assay: Inhibition of Arid5a L84 pocket X mutant in human HEK293T cells at 40 uM assessed as inhibition of stabilization of OX40 on 3'UTR measured by luciferase assay. It is filed as cell-based.
Assay [39] concerns HEK293T. Description: Inhibition of Arid5a in human HEK293T cells at 10 to 60 uM assessed as inhibition of stabilization of STAT3 on 3'UTR measured by luciferase assay. The assay is classed as cell-based. The settings on record: dose 10-60 µM.

`Cc1nnc(SCC(=O)c2ccccc2)o1`: the outcome in the assay with Mus musculus [1], with Mus musculus [4], with Mus musculus [8], with Mus musculus [9], in the assay on Mus musculus [10] and in the assay on Mus musculus [12] was Active. Besides, the inhibition entry in the assay on HEK293T [2] is “Active”. Also, the Activity is on record as 61% in the assay with LNCaP [3], 64% in the assay with MDA-MB-231 [5] and 59% in the assay on A549 [6]. Also, the IC50 (commonly the concentration that inhibits the measured activity by half) in the assay on MDA-MB-231 [7] came to 27.8 µM; with A549 [11], 28.4 µM; in the assay on LNCaP [13], 34.6 µM.
For `CC(=O)CSc1nnc(-c2cccnc2)o1`, the outcome with Mus musculus [1], in the assay on Mus musculus [4], in the assay with Mus musculus [8], with Mus musculus [9], with Mus musculus [10] and in the assay with Mus musculus [12] was Active. In the assay with HEK293T [2], the inhibition entry was “Active”. The figures for the Activity in the assay with LNCaP [3], in the assay with MDA-MB-231 [5] and with A549 [6] were 61%, 64% and 59%, respectively. Besides, the IC50 in the assay on MDA-MB-231 [7] was found to be 27.8 µM; in the assay on A549 [11] it was 28.4 µM; in the assay with LNCaP [13] it was 34.6 µM.
Regarding `Cc1nnc(NCC(=O)c2ccccc2)s1`, the result in the assay with Mus musculus [1], in the assay on Mus musculus [4], with Mus musculus [8], with Mus musculus [9], in the assay on Mus musculus [10] and with Mus musculus [12] was Active. Besides, the inhibition entry in the assay on HEK293T [2] was “Active”. In addition, the Activity came out at 61% in the assay on LNCaP [3], 64% with MDA-MB-231 [5] and 59% with A549 [6]. The IC50 in the assay with MDA-MB-231 [7] stood at 27.8 µM; in the assay with A549 [11], 28.4 µM; with LNCaP [13], 34.6 µM.
In the case of `O=C(CSc1nnc(-c2ccncc2)o1)c1ccccc1`, the outcome in the assay on Macrophage [14], in the assay with Mus musculus [16], in the assay with Mus musculus [1], in the assay with Macrophage [17], in the assay with Mus musculus [18] and in the assay on Mus musculus [19] was Active. Also, the outcome with Macrophage [20], with Mus musculus [4], in the assay on Mus musculus [8], in the assay with Mus musculus [9], in the assay with Mus musculus [26] and in the assay on Macrophage [27] was Active. Further, the result in the assay with Mus musculus [10], in the assay with Mus musculus [12], with Mus musculus [29] and in the assay on Mus musculus [36] was Active. For the same compound, the inhibition entry in the assay with HEK293T [15], with HEK293T [21], with HEK293T [22], with HEK293T [23], in the assay with HEK293T [28] and with HEK293T [30] was “inactive” in each case. Further, the inhibition entry in the assay on HEK293T [32], in the assay on HEK293T [33], in the assay with HEK293T [34], in the assay on HEK293T [35], in the assay on HEK293T [37] and with HEK293T [38] was “inactive” throughout. Besides, the inhibition entry in the assay on HEK293T [2], with HEK293T [24], in the assay with HEK293T [25], in the assay listed under Homo sapiens and in the assay with HEK293T [39] was “Active” each time. The Activity with LNCaP [3] stood at 61%; with MDA-MB-231 [5], 64%; in the assay on A549 [6] it was 59%. The values for the IC50 in the assay on MDA-MB-231 [7], in the assay on A549 [11] and in the assay with LNCaP [13] were 27.8 µM, 28.4 µM and 34.6 µM, respectively. For the same compound, the result in the assay on Macrophage [31] was inactive.
